Series [1] deals with HCT116 p53^+/+ colon cancer cells. The experiment in a line: MTT cytotoxicity, HCT116 p53+/+. The series is classed as cell-based, human. The following applies: 72 h. As for the experimental part:
(§1) All prepared cobalt-polypyridyl complexes were dissolved in DMSO at a final concentration of 50 mmol/L and stored at −20° C. before use. Cytotoxicity was assessed by using the 3-(4,5-dimethylthiazol-2-yl)-2,5-diphenyltetrazolium bromide (MTT) (5.0 mg/ml) assay as previously described (Wong, V. K. et al., Cell Death Dis, 2013, 4, e720). Briefly, 4×10^3 cells per well were seeded in 96-well plates before drug treatments. After overnight culture, the cells were then exposed to different concentrations of selected compounds (0.039-100 μmol/L) for 72 h. Cells without drug treatment were used as control. Subsequently, MTT (10 μL) solution was added to each well and incubated at 37° C. for 4 h followed by the addition of 100 μL solubilization buffer (10% SDS in 0.01 mol/L HCl) and overnight incubation. A570 nm was then determined in each well on the next day. The percentage of cell viability was calculated using the following formula: Cell viability (%)=Atreated/Acontrol×100. Data were obtained from three independent experiments.
(§2) Cisplatin-sensitive or -resistant A2780, OV2008 and C13 cancer cells were provided by Prof. Benjamin Tsang (Department of Obstetrics and Gynecology and Department of Cellular and Molecular Medicine, University of Ottawa, Canada). HCT116 p53^+/+ and p53^−/− isogenic human colon cancer cells were provided by Professor Bert Vogelstein (Ludwig Center at Johns Hopkins, Howard Hughes Medical Institute, USA). All media were supplemented with 10% fetal bovine serum and the antibiotics penicillin (50 U/ml) and streptomycin (50 μg/ml; Invitrogen, Paisley, Scotland, UK). All cell cultures were incubated at 37° C. in a 5% humidified CO2 incubator.

A short description of series [2]: Body weight in mouse lung cancer xenograft model. The class given is in vivo. Conditions: IP 40 mg/kg/day, tumor-bearing mice. The source says:
The mice were maintained under specific pathogen-free condition in a 12-h light-dark cycle. Experimental conditions were followed in accordance to the “Institutional AnimalCare and User Committee guidelines” of the Macau University of Science and Technology. Xenograft mouse model was constructed as previously described (Wong, V. K. et al., Oncotarget, 2016, 7, 9907-9924). LLC-1 Lewis lung cancer cells (1×10^6 cells) were subcutaneously injected in the right dorsal region of the mice. After tumors grew to about 100 mm^3, the mice were randomly divided into 3 groups: 1) the control group, 2) 40 mg/kg cobalt-polypyridyl complex of Formula (IV) group, and 3) 40 mg/kg cobalt-polypyridyl complex of Formula (IV) as chloride, also referenced as (IV)-Cl (water soluble form) group. The cobalt-polypyridyl complex of Formula (IV) was dissolved in 100 μL buffer (PEG400:EtOH:ddH2O=6:1:3), whereas (IV)-Cl (water soluble form) was dissolved in ddH2O. The complexes were then intraperitoneal injected in mice every day. The body weight of each mouse was recorded with the tumor volume determined by Vernier caliper using the formula of L×W^2×0.52, where L is the longest diameter of tumor and W is the shortest diameter of tumor. Mice with tumor implants were sacrificed after 10 days when the tumor size of vehicle control group reached above 1000 mm^3 due to animal ethical issue.

Series [3] concerns cisplatin-resistant SGC-7901 gastric cancer cells. The experiment in a line: MTT cytotoxicity, cisplatin-resistant SGC-7901. The class given is cell-based. The method, then: as §1
All cells were obtained from the American Type Culture Collection (Rockville, Md., USA) unless otherwise specified. Immortalized wild-type and Atg7-deficient mouse embryonic fibroblasts (MEFs) were provided by Professor Masaaki Komatsu (Juntendo University, School of Medicine, Japan). Taxol-resistant types of A549, MCF-7, HCT-8 cancer cells, cisplatin-resistant SGC7901 cancer cells were purchased from KeyGEN BioTECH, China.

For series [4], the system named is LC3-II protein conversion. The experiment in a line: Western blotting of LC3-I to LC3-II conversion. The series is classed as cell-based. Conditions: Western blot; complex at 10 μM and 20 μM. The method, then: After drug treatment, adherent and floating cells were lysed with RIPA lysis buffer. Protein concentrations were determined using the Bio-Rad protein assay (Bio-Rad Laboratories, Inc., Hercules, Calif., USA). The cell lysates of samples were subjected to electrophoresis on SDS polyacrylamide gels and transferred to Hybond enhanced chemiluminescence nitrocellulose membranes (Amersham Biosciences, Piscataway, N.J.), which were then blocked with 5% non-fat dry milk protein for 1 h. Membranes were then incubated with the indicated primary antibodies overnight at 4° C. The binding of the antibody was visualized by peroxidase-coupled secondary antibody using the ECL Western Blotting Detection Reagents (Invitrogen, Paisley, Scotland, UK). Band intensities were quantified by using the software ImageJ (NIH, Bethesda, Md., USA).

The subject of series [5] is H1975 (lung cancer). The experiment in a line: MTT cytotoxicity assay, H1975. The following applies: 72 h. The series is classed as cell-based. As for the experimental part: as §1, with “experiments. Cells include HeLa cells (cervical cancer), MCF-7 (breast cancer), H1299, H1975, A549 and LLC-1 (lung cancer), HepG2 and Hep3B (liver cancer) and LO2 (normal human hepatocytes).” for “experiments.”

Series [6] relates to H1299 (lung cancer). The experiment in a line: MTT cytotoxicity assay, H1299. Conditions: 72 h. The series is classed as cell-based, human. The method, then:
as §1, with “experiments. Cells include HeLa cells (cervical cancer), MCF-7 (breast cancer), H1299, H1975, A549 and LLC-1 (lung cancer), HepG2 and Hep3B (liver cancer) and LO2 (normal human hepatocytes).” for “experiments.”

The subject of series [7] is endogenous LC3-II puncta formation in HeLa cancer cells. The following applies: HeLa, 5, 10, 20 μM.
Description: The detection of endogenous LC3 was conducted using immunofluorescence staining method as described below. HeLa cancer cells treated with the cobalt-polypyridyl complex of Formula (IV) (with PF6^− as counterion) on cover slips were fixed with 4% paraformaldehyde (Sigma) for 20 min at room temperature and then rinsed with PBS. Coverslips were immersed in methanol at room temperature for 2 min. After washing with PBS, the cells were then incubated with anti-LC3 (1:200) in TBST (100 mM TrisHCl, pH 7.5, 150 mM NaCl, 0.05% Tween 20 and 5% BSA) overnight at 4° C. […] The coverslips were then mounted with FluorSave™ mounting media (Calbiochem, San Diego, Calif., USA) for fluorescence imaging and localization of LC3 autophagosomes were captured under the API Delta Vision Live-cell Imaging System (Applied Precision Inc., GE Healthcare Company, Washington, USA). To quantify autophagy, guidelines of autophagy quantitation were followed (Klionsky, D. J. et al., Autophagy, 2016, 12, 1-222). The percentage of cells with autophagic induction was calculated by the number of the cells with increased formation of punctate LC3 fluorescence dots (≧10 dots/cell) over the total number of immunofluorescence-positive cells in the same field. A minimum of 1000 cells from randomly selected fields were scored.
The test system of series [8] is MCF-7 (breast cancer). The series can be described thus: MTT cytotoxicity assay, MCF-7. The class given is cell-based. Conditions: MCF-7, MTT, 72 h. As for the experimental part: as §1, with “experiments. Cells include HeLa cells (cervical cancer), MCF-7 (breast cancer), H1299, H1975, A549 and LLC-1 (lung cancer), HepG2 and Hep3B (liver cancer) and LO2 (normal human hepatocytes).” for “experiments.”

Series [9] relates to Taxol-sensitive A549 cancer cells. The series can be described thus: MTT cytotoxicity, taxol-sensitive A549. The class given is cell-based. The following applies: 72 h. As for the experimental part: as §1
For series [10], the system named is HCT116 p53^−/− colon cancer cells. The series can be described thus: MTT cytotoxicity, HCT116 p53-/-. The series is classed as cell-based, human. As for the experimental part: as §1, §2
For series [11], the system named is cisplatin-sensitive A2780 ovarian cancer cells. The series can be described thus: MTT cytotoxicity, cisplatin-sensitive A2780. Conditions: 72 h. The series is classed as cell-based. As for the experimental part:
as §1, §2

The source of these data is US9895338B1, “Cobalt-polypyridyl complex for treatment of cancer, a pharmaceutical composition and a kit comprising it” (Macau University of Science and Technology, priority 2016, dated 2018).

As to `Cc1ccnc(-c2cc(C)ccn2)c1.Cc1ccnc(-c2cc(C)ccn2)c1.Cc1ccnc(-c2cc(C)ccn2)c1.F[P-](F)(F)(F)(F)F.F[P-](F)(F)(F)(F)F.F[P-](F)(F)(F)(F)F.[Co+3]` [complex (IV), [Co^III(4,4′-Me2-Bpy)3.](PF6)3], the IC50 in series [1] was 15.4 µM; in series [3] (SGC-7901, MTT, 72 h), 12.6 µM; in [5] it was 8.84 µM; in [6], 2.84 µM; in series [8], 6.03 µM; in [9], 11.5 µM. Besides, the IC50 in [10] (MTT, 72 h) turned out to be 9.07 µM; in series [11], 12.3 µM. For the same molecule, the “reduction in body weight” value in [2] is listed as “no significant reduction in body weight”. The “Resistant Factor” value in [3] (SGC-7901, cisplatin-resistant over cisplatin-sensitive) came to 1.14; in series [10] (HCT116 p53^−/− over HCT116 p53^+/+), 0.59. Moreover, the “LC3-I to LC3-II protein conversion” value in [4] is listed as “dose-dependently increased the LC3-II protein conversion”. The “endogenous LC3-II puncta formation (autophagy induction)” value in [7] is listed as “induce autophagy in dose-dependent manner”.
